Key:
Leishmania donovani [1] = experiment: (§1) GSK_TCAKS: pIC50 Leishmania donovani Imaging: Amastigotes/Macrophages. Assay plates (384-well) were prepared by adding 250nL of compound to each well. For single shot assay, the final compound concentration was 5 uM. […] Automated image analysis was performed with a script developed on Acapella High Content Imaging and Analysis Software (PerkinElmer). Output: Average number of amastigotes per macrophage cell were reported for each well.; assay type: functional, organism-based, Homo sapiens; conditions: THP-1
Trypanosoma cruzi [2] = experiment: GSK_TCAKS: pIC50 Trypanosoma cruzi Imaging: Amastigotes/Cell. […] Cells were then washed once with PBS before infection. T. cruzi trypomastigotes, collected at days 5 to 8 after infection from LLC-MK2 parasite infected cultures, were allowed to swim out for 4h at 37C from a centrifuged pellet (2,500 rpm/10 min/room temperature). Trypomastigotes were then collected and counted in a CASY Cell Counter. Trypomastigotes, in supplemented DMEM, were added to H9c2 cultures in a multiplicity of infection of 1 and incubated for 18 h. Cells were washed once with PBS before incubation of the infected H9c2 monolayer with trypsin (Life-Technologies) to detach cells from the flask. Cells were counted in a CASY Cell Counter using a 150 um capillary and their density set at 5 * 10^4 cells per mL in supplemented assay DMEM. Infected H9c2 were dispensed into 384-well poly-lysine coated assay plates at 50uL per well using a Multidrop Combi dispenser. After seeding them, the plates were incubated at 37C, 5% CO2 for 72h. Cultures were then fixed and stained by addition of 50 uL of a solution containing 8% formaldehyde and 4 uM DRAQ5 DNA dye (BioStatus, UK) per well. […] Five images were collected per well for reliable statistical analysis. Automated image analysis was performed with a script developed on Acapella High Content Imaging and Analysis Software (PerkinElmer). Output: number of amastigotes per cell as infection level measurement.; assay type: functional, organism-based, Rattus norvegicus; conditions: H9c2, 4 h
Leishmania donovani [3] = experiment: GSK_TCAKS: pIC50 Leishmania donovani viability assay using fluorescence intensity. Assay plates (1536-well) were prepared by adding 30nL per well of compound. For single shot assay, the final compound concentration was 5uM. […] Briefly, eGFP LdBOB axenic amastigotes were harvested, fixed and counted in a CASY cell counter (Roche-Applied Science). A final concentration of 1.5 * 10^5 cells per well were prepared in amastigote media containing 500 U/mL penicillin/streptomycin (Invitrogen) and 6uL was dispensed to each experimental well using a Multidrop Combi dispenser (Thermo Scientific). 6uL of assay media was dispensed to control columns used as reference for 100% compound response. Following incubation for 72 h at 37C, 5% CO2, 2 uL of resazurin was added to each well at a final concentration of 0.5 mM in phosphate buffered saline (PBS) with IGEPAL (Sigma-Aldrich), 0.05% (v/v).; assay type: functional, organism-based
[4] = test system: Trypanosoma brucei brucei; experiment: GSK_TCAKS: pIC50 Trypanosoma brucei viability assay using luminiscence. Assay plates (1536-well) were prepared. T. brucei cultures were harvested and counted in a CASY cell counter. A parasite suspension was prepared at a final concentration of 5 * 10^4 cells/mL in complete HMI9 medium and 6uL was dispensed to all wells containing compounds using a Multidrop Combi dispenser. 6uL of HMI9 media with 0.4% DMSO were dispensed to control columns. Plates were incubated for 24 h at 37C, 5% CO2 then tempered for 10 min at room temperature. ATP content was quantified by adding 4 uL of CellTiter-Glo Reagent (Promega) according to the manufacturer's instructions. Luminescence was measured using a ViewLux.; assay type: functional, organism-based; conditions: Lister 427, CASY
[5] = target: Sterol 14-alpha demethylase (Trypanosoma cruzi (strain CL Brener), UniProt Q7Z1V1); experiment: GSK_TCAKS: pIC50 CYP51 from Trypanosoma cruzi.; assay type: functional
Sequence of Sterol 14-alpha demethylase (Q7Z1V1 whole entry): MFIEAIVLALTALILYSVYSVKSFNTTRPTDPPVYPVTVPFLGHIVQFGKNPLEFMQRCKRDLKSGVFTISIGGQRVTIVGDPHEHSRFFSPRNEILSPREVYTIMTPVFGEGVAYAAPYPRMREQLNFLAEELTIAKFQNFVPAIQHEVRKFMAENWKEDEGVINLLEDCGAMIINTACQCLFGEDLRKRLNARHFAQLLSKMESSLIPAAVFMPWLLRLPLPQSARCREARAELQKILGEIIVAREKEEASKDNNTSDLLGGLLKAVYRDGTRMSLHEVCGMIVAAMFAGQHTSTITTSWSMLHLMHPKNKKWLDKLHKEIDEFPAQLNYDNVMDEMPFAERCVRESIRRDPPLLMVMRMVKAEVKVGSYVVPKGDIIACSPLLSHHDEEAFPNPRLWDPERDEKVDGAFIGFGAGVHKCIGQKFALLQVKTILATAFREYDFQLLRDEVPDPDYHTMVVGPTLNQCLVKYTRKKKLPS

Leishmania donovani [6] = experiment: as §1, with “THP-1 Host Macrophages.” for “Amastigotes/Macrophages.”, “THP-1” for “Average number of amastigotes per macrophage”, “cell count” for “cell”; assay type: functional, organism-based, Homo sapiens
Trypanosoma cruzi [7] = experiment: (§2) GSK_TCAKS: pIC50 Trypanosoma cruzi Imaging: Infected Cells. […] Cells were then washed once with PBS before infection. T. cruzi trypomastigotes, collected at days 5 to 8 after infection from LLC-MK2 parasite infected cultures, were allowed to swim out for 4h at 37C from a centrifuged pellet (2,500 rpm/10 min/room temperature). Trypomastigotes were then collected and counted in a CASY Cell Counter. Trypomastigotes, in supplemented DMEM, were added to H9c2 cultures in a multiplicity of infection of 1 and incubated for 18 h. Cells were washed once with PBS before incubation of the infected H9c2 monolayer with trypsin (Life-Technologies) to detach cells from the flask. Cells were counted in a CASY Cell Counter using a 150 um capillary and their density set at 5 * 10^4 cells per mL in supplemented assay DMEM. Infected H9c2 were dispensed into 384-well poly-lysine coated assay plates at 50uL per well using a Multidrop Combi dispenser. After seeding them, the plates were incubated at 37C, 5% CO2 for 72h. Cultures were then fixed and stained by addition of 50 uL of a solution containing 8% formaldehyde and 4 uM DRAQ5 DNA dye (BioStatus, UK) per well. […] Five images were collected per well for reliable statistical analysis. Automated image analysis was performed with a script developed on Acapella High Content Imaging and Analysis Software (PerkinElmer). Output: percentage of infected cells per well as a second infection marker.; assay type: functional, organism-based, Rattus norvegicus; conditions: H9c2, 4 h
Trypanosoma cruzi [8] = experiment: GSK_TCAKS: pIC50 Trypanosoma cruzi viability assay using beta-GAL activity. This assay was run at single shot at 5uM compound concentration per well. The biological reagents consisted of NIH-3T3 host cells and trypomastigotes parasitic cells; both cell types were set to a 3.3 * 10^5 cells/mL dilution in assay DMEM by means of a CASY cell counter device using a 60um capillary. 6 uL of the mixture were dispensed per well (about 1 * 10^3 host-cells and 1 * 10^3 parasites) with a Multidrop Combi dispenser. […] In all wells, the percentage of DMSO never exceeded 0.5%. Plates incubated for four days at 37C, 5% CO2. The substrate used for the assay fluorescence intensity (FLINT) readout was resorufin-beta-D-galactopiranoside (Sigma-Aldrich) at 5uM per well. It was diluted in PBS supplemented with the soft detergent Igepal (Fluka).; assay type: functional, organism-based, Mus musculus; conditions: Tulahuen, NIH3T3
[9] = GSK_TCAKS: pIC50 HepG2 human cell line viability assay using luminiscence. […] Seeding density was checked to ensure that new mono-layers were not more than 50% confluent at the time of harvesting. Cell suspension was added to 500 mL of the same medium at a final density of 1.2 * 10^5 cells/mL. This cell suspension was dispensed (25 uL, 3000 cells per well) into 384-well clear-bottom plates using a Multidrop Combi dispenser. Prior to addition of the cell suspension, the screening compounds (250 nL) were pre-dispensed into the plates with an Echo liquid handler. Plates were incubated for 48 h at 37C, 5% CO2. After incubation, plates equilibrated at room temperature for 30 min before proceeding to develop the luminescent signal. The signal developer, CellTiter-Glo Reagent, was allowed to equilibrate at room temperature for 30 min and added to the plates (25uL per well) using a Multidrop Combi dispenser. Plates were left for 10 min at room temperature for stabilization and then read using a ViewLux.; assay type: toxicity, cell-based
[10] = test system: Trypanosoma brucei brucei; experiment: GSK_TCAKS: pIC50 Trypanosoma brucei viability assay using fluorescence intensity. Assay plates (1536-well) were prepared by dispensing 25nL of compound solution per well using an Echo acoustic dispenser (Labcyte).; assay type: functional, organism-based; conditions: Lister 427, 2 h
Leishmania donovani [11] = experiment: as §1, with “Infected Macrophages.” for “Amastigotes/Macrophages.”, “Percent” for “Average number”, “infected” for “amastigotes per”, “cells” for “cell”; assay type: functional, organism-based, Homo sapiens; conditions: THP-1
Trypanosoma cruzi [12] = experiment: as §2, with “H2C9” for “Trypanosoma cruzi”, “H9c2 Host Cardiomyocytes.” for “Infected Cells.”, “Number” for “percentage”, “H9c2 Host Cardiomyocytes nuclei to determine drug-related cytotoxicity.” for “infected cells per well as a second infection marker.”; assay type: functional, organism-based, Rattus norvegicus; conditions: H9c2, 4 h

Compound | IC50 (Leishmania donovani [1]) | IC50 (Trypanosoma cruzi [2]) | IC50 (Leishmania donovani [3]) | IC50 [4] | IC50 [5] | IC50 (Leishmania donovani [6]) | IC50 (Trypanosoma cruzi [7]) | IC50 (Trypanosoma cruzi [8]) | IC50 at 48 h [9] | IC50 [10] | IC50 (Leishmania donovani [11]) | IC50 (Trypanosoma cruzi [12])
COc1cc(-c2noc(CC#N)n2)ccc1OC(F)F | > 50.1 µM | 25.1 µM | > 50.1 µM | 0.631 µM | 100 µM | 50.1 µM | 39.8 µM | 39.8 µM | > 100 µM | 0.631 µM | > 50.1 µM | 31.6 µM
CS(=O)(=O)c1ccc(Nc2nccc(Nc3n[nH]c4ccc(F)cc34)n2)c(F)c1 | 10 µM | 3.98 µM | 12.6 µM | 0.794 µM | 39.8 µM | 15.8 µM | 31.6 µM | 7.94 µM | 79.4 µM | 0.501 µM | 12.6 µM | 15.8 µM
Cc1nc2c(-c3ncn[nH]3)cc(NC(=O)Cc3ccccc3)cn2c1C | 0.316 µM | 0.794 µM | 0.794 µM | 10 µM | 10 µM | 7.94 µM | 1 µM | 1 µM | 15.8 µM | 3.16 µM | 0.398 µM | 6.31 µM
Cc1[nH]nc(Nc2ccnc3[nH]ccc23)c1C | > 50.1 µM | > 50.1 µM | > 50.1 µM | 0.251 µM | 79.4 µM | > 50.1 µM | > 50.1 µM | 3.98 µM | > 100 µM | 0.126 µM | > 50.1 µM | > 50.1 µM
COc1cc(Nc2nccc(Nc3onc(C)c3C)n2)cc(S(=O)(=O)C2CCOCC2)c1 | 5.01 µM | 12.6 µM | 39.8 µM | 0.501 µM | 7.94 µM | 39.8 µM | 25.1 µM | 6.31 µM | 31.6 µM | 0.501 µM | > 50.1 µM | 10 µM
O=C(NCCc1ccn(-c2ccccc2)n1)C1CCCCC1 | > 50.1 µM | 1 µM | > 50.1 µM | 0.316 µM | 100 µM | > 50.1 µM | 1 µM | 1.26 µM | > 100 µM | 0.251 µM | > 50.1 µM | > 50.1 µM
CC(C)(C)C(=O)Nc1cc(C2CC2)nn1-c1nc2c(c(=O)[nH]1)CCCC2 | 2 µM | 0.126 µM | 0.0794 µM | 0.2 µM | > 100 µM | 7.94 µM | 0.501 µM | 0.501 µM | > 100 µM | 0.158 µM | 5.01 µM | 2 µM
Cc1cc(NC(=O)C2CCCCC2)n(-c2nc3c(c(=O)[nH]2)CCC3)n1 | 3.16 µM | 0.158 µM | 0.0398 µM | 0.158 µM | > 100 µM | 10 µM | 0.501 µM | 0.316 µM | 50.1 µM | 0.126 µM | 5.01 µM | 2 µM
Cc1cc(NC(=O)CC2CCCCC2)n(-c2nc3c(c(=O)[nH]2)CCC3)n1 | 1.58 µM | 0.126 µM | 0.0316 µM | 0.158 µM | > 100 µM | 3.98 µM | 0.316 µM | 0.251 µM | > 100 µM | 0.2 µM | 3.16 µM | 3.98 µM
Cc1ccc2c(c1)SC(C(=O)Nc1nnc(-c3ccccn3)[nH]1)C2 (stereo unspecified) | 2.51 µM | 6.31 µM | 6.31 µM | > 39.8 µM | > 100 µM | 25.1 µM | 7.94 µM | 5.01 µM | 25.1 µM | 3.98 µM | 3.98 µM | > 50.1 µM
Cn1nccc1NC(=O)Cn1ccc(-c2ccncc2)n1 | > 50.1 µM | > 50.1 µM | > 50.1 µM | 0.631 µM | 6.31 µM | > 50.1 µM | > 50.1 µM | > 50.1 µM | > 100 µM | 0.631 µM | > 50.1 µM | > 50.1 µM
Cc1cn[nH]c1C1CCCN(Cc2nc3ccccc3n2C)C1 (stereo unspecified) | 3.16 µM | 10 µM | 15.8 µM | 7.94 µM | 1.26 µM | 20 µM | 20 µM | 3.16 µM | 50.1 µM | 6.31 µM | 3.98 µM | > 50.1 µM
COc1ccc(Cl)cc1CC(=O)Nc1nnc(-c2ccccn2)[nH]1 | 5.01 µM | 10 µM | 3.98 µM | > 39.8 µM | > 100 µM | > 50.1 µM | > 50.1 µM | 10 µM | 31.6 µM | 15.8 µM | 6.31 µM | > 50.1 µM
O=C(Cc1ccc2c(c1)CCC2)Nc1nnc(-c2ccccn2)[nH]1 | 6.31 µM | 10 µM | 7.94 µM | > 39.8 µM | 2.51 µM | > 50.1 µM | 10 µM | 10 µM | 50.1 µM | 20 µM | 6.31 µM | > 50.1 µM
COc1ccc(Nc2nccc(N(C)c3n[nH]c4c(F)cccc34)n2)cc1S(C)(=O)=O | 1 µM | 2 µM | 25.1 µM | 10 µM | 31.6 µM | 10 µM | 3.98 µM | 2 µM | 20 µM | 6.31 µM | 2.51 µM | 7.94 µM
COc1ccccc1CNc1cc(C2CC2)nc(-c2nccn2C)n1 | 0.398 µM | 1 µM | 1 µM | 2 µM | 20 µM | 15.8 µM | 0.794 µM | 0.891 µM | 20 µM | 2.51 µM | 0.501 µM | 0.631 µM
COc1ccc(CNc2cc(C3CC3)nc(-c3nccn3C)n2)cc1 | 0.794 µM | 0.631 µM | 2 µM | 2.51 µM | 5.01 µM | 12.6 µM | 0.794 µM | 1 µM | 25.1 µM | 1.26 µM | 0.794 µM | 1 µM
Cc1ccccc1CNc1cc(C2CC2)nc(-c2nccn2C)n1 | 0.631 µM | 0.794 µM | 1.58 µM | 1.58 µM | 15.8 µM | 10 µM | 0.794 µM | 0.794 µM | 15.8 µM | 2.51 µM | 0.631 µM | 0.794 µM

Reference: ChEMBL document CHEMBL3430912, “GSK Tres Cantos Anti-Kinetoplastid Screening (TCAKS) Data”
